According to a melting point compilation (Tetko et al.; mined from patent text by program, amines drawn as free bases though some values may be those of a salt):

First: CC(C)c1cccc(C(C)C)c1NC(=O)C(C)C1c2ccccc2Oc2ccccc21 (centres undefined)
Second: O=C1NC(=O)C(Cc2ccc(OCCN3c4ccccc4Oc4ccccc43)cc2)S1 (centres undefined)
The melting point of the first is higher: 210 to 211 °C for the first, 170 to 172 °C for the second.

Compared with `CCCc1c(OCCCOc2ccc3ccc(OCC(=O)OC)cc3c2C(C)=O)ccc(C(C)=O)c1O`, `CCCc1c(OCCCSc2nc3ccccc3[nH]2)ccc(C(C)=O)c1O` is higher in melting point: 104 to 107 °C for the first, 149 to 150 °C for the second.

First: CCN(C(=O)OCc1ccccc1)c1cc(Cl)c2c(c1)C(c1ccccc1F)=NC(C)(C)C(=O)N2C
Second: Cc1nc(N2CCN(Cc3ccccc3)C2=O)sc1C(=O)NCc1ccccc1F
The melting point of the first is lower: 150 to 151 °C for the first, 167 to 168 °C for the second.

First: CCCCC1CCc2c(OCc3ccc4ccccc4n3)cccc2C1=O (centres undefined)
Second: CCCCc1cn(Cc2ccc(-c3ccccc3C(=O)O)cc2)c2cccc(SC)c2c1=O
The melting point of the first is lower: 97 to 98 °C for the first, 155 °C for the second.

Compared with `O=C1NN=C(c2ccc3c(c2)CCN(C2CCC2)CC3)C2CC12` (centres undefined), `COc1ccc2[nH]c(C)c(C3CN4CCC3CC4)c2c1` (centres undefined) is higher in melting point: 129 to 132 °C for the first, 232 to 234 °C for the second.

First: O=c1c(O)cn(-c2cccc(C(F)(F)F)c2)nc1-c1ccnn1-c1ccccc1
Second: O=C(NCCO)c1ccnc(-c2cccc3cc(Cc4cccc(C(F)(F)F)c4)sc23)c1
The melting point of the first is higher: 246 to 248 °C for the first, 168 to 169 °C for the second.

First: CCc1ncc(CCCOc2c(C)cc(-c3noc(C(F)(F)F)n3)cc2C)s1
Second: CCCc1nn(-c2ccc(C(F)(F)F)cn2)cc1CCCCO
The melting point of the first is lower: 57 to 59 °C for the first, 80 to 81 °C for the second.

Compared with `CN1C(C(=O)OCCO)=C(O)c2ccccc2S1(=O)=O`, `CC(C)(C)OC(=O)N1CCC[C@H]1C(=O)OCCCNc1cccc2c1C(=O)c1ccccc1C2=O` is lower in melting point: 122 to 123 °C for the first, 121 °C for the second.

First: CN(C)Cc1ccc(SC2CCNCC2)cc1
Second: CCC(=O)N1CCC(NC(=O)Nc2ccc(C(=O)OC)cc2)CC1
The melting point of the first is lower: 52 °C for the first, 201 to 204 °C for the second.

First: CCCN(CCC)C(=O)Cn1c(-c2ccc(C(F)(F)F)cc2)nc2cccnc21
Second: CCOC(=O)c1cc(-c2ccc(Cl)cc2)cnc1C
The melting point of the first is higher: 138 to 139 °C for the first, 71 °C for the second.

Compared with `CC(C)(C)[N+]([O-])=Cc1cc([N+](=O)[O-])ccc1O`, `CCCCCCc1ccc(O)c(C(=O)Nc2ccc([N+](=O)[O-])cc2)c1` is lower in melting point: 172 °C for the first, 154 to 155 °C for the second.

First: C=CCc1cc2c(c(CC=C)c1O)CCC(=O)N2
Second: Cc1cc(C)cc(C(=O)N2CCC(=O)CC2Cc2ccccc2)c1 (centres undefined)
The melting point of the first is higher: 118 to 119 °C for the first, 108 °C for the second.

Compared with `N#Cc1cnn(-c2ccc(Cl)c(Cl)c2Cl)c1NCCO`, `CC(=O)OC(n1cc(C#N)c(-c2cccc(Cl)c2Cl)c1)C(Cl)(Cl)Cl` (centres undefined) is lower in melting point: 197 to 199 °C for the first, 111 to 113 °C for the second.

First: COc1ccc(-c2nc(C(=O)Nc3nccs3)c(-c3ccc(C)cc3)[nH]2)c2ccccc12
Second: CNc1nc(-c2cccc(NC(=O)c3ccccc3Cl)c2)c2cc(OC)c(OC)cc2n1
The melting point of the first is higher: > 250 °C for the first, 197 to 199 °C for the second.

Compared with `CCOC(=O)Cc1csc(NC(=O)C(Cc2ccccc2)NC(=O)OC(C)(C)C)n1` (centres undefined), `CCOC(=O)COc1ccc(N2CCN(C(=O)OC(C)(C)C)CC2)cc1C=O` is lower in melting point: 119 to 120 °C for the first, 93 to 94 °C for the second.

First: CCC(C)(C)NC(=O)c1cnc2cccc(C)n2c1=O
Second: Cc1cc(Br)ccc1C(=O)NCC(F)(F)F
The melting point of the first is lower: 87 to 89 °C for the first, 124 to 126 °C for the second.

Compared with `Cc1ccc(S(=O)(=O)n2ccc3c(Cl)ncnc32)cc1`, `COC(=O)c1ccc(S(=O)(=O)n2c(=O)[nH]c3cc(Cl)ccc3c2=O)cc1` is higher in melting point: 143 °C for the first, > 230 °C for the second.

First: CN1CCC2(C#N)C(C1)C1CN(C)C2C=C1C(=O)c1ccccc1 (centres undefined)
Second: O=Cc1nn(-c2ccccc2)c2c1CCC2
The melting point of the first is higher: 120 to 139 °C for the first, 108 to 109 °C for the second.

Compared with `ON=Cc1ccc(-c2ccc(O)cc2)c(Cl)c1Cl`, `O=C(C=Cc1c(Cl)cccc1Cl)c1ccccc1` is lower in melting point: 208 to 210 °C for the first, 83 °C for the second.

First: CN(C)CCCCNC(=O)c1ccccc1-c1nnc(CSCCOc2ccccc2)o1
Second: CN(C)CCCOc1ccc(-c2nnc(Cc3ccc(Oc4ccccc4)cc3)o2)cc1
The melting point of the first is lower: 62 to 65 °C for the first, 156 to 158 °C for the second.

First: CNC(=O)Nc1snc(S(C)=O)c1C#N (centres undefined)
Second: COC(=O)CCc1ncc2c(c1C(=O)OC)CCO2
The melting point of the first is higher: 241 °C for the first, 80 to 81 °C for the second.

First: CC(=O)Oc1ccc2c(c1)Cc1cc(C(C)=O)ccc1-2
Second: O=C(O)c1ccc2c(c1)C(=Cc1ccccc1)OC2=O
The melting point of the first is lower: 126 to 128 °C for the first, 261 °C for the second.

First: O=C(c1c(Cl)cccc1Cl)P(=O)(c1ccccc1)c1ccccc1
Second: COC(=O)[C@H](Cc1ccc(NC(=O)c2c(Cl)cccc2Cl)cc1)NC(=O)C1(Cc2ccc(OC)cc2)CCCCC1
The melting point of the first is higher: 156 to 158 °C for the first, 85 to 87 °C for the second.

First: Cn1cc(C(=O)O)c(=O)c2cc3cc(F)c(N4CCN(O)CC4)c(F)c3nc21
Second: Cn1cc(C(=O)NCc2ccc(Cl)cc2)c(=O)c2cc(CN3CCOC[C@@H]3[C@H](O)c3ccccc3)sc21
The melting point of the first is higher: 285 to 288 °C for the first, 129 to 134 °C for the second.

Compared with `O=C(CCS)NCCS`, `O=C(CCCCCSc1ccc(Cl)cc1)NO` is higher in melting point: 40 °C for the first, 83 to 85 °C for the second.

Compared with `COc1ccc(NC(=O)c2ccc(OC)c(C34CC5CC(CC(C5)C3)C4)c2)c([N+](=O)[O-])c1`, `COC(=O)c1ccc(OCc2ccccc2)c(OC2CCCC2)c1` is lower in melting point: 208 to 210 °C for the first, 58 to 59 °C for the second.

First: CC1=C(CC(=O)O)c2cc(F)ccc2C1=Cc1ccc(S(C)(=O)=O)cc1
Second: CCCc1cc(=O)oc2cc(OS(=O)(=O)c3ccc(C)cc3)c3c(c12)OC(C)(C)C=C3
The melting point of the first is higher: 204 to 206 °C for the first, 150 to 151 °C for the second.

First: CC(C)C(=Nc1ccc([N+](=O)[O-])c(C(F)(F)F)c1)N(C)c1ccccc1
Second: O=C(C[C@H](NC(=O)C(F)(F)F)C(=O)O)c1ccc2oc3ccccc3c2c1
The melting point of the first is lower: 52.5 to 54 °C for the first, 140 to 144 °C for the second.

Compared with `CCOCc1nc2c(N)nc3cc(OCc4ccccc4Cl)ccc3c2n1CC(C)C`, `CC(C)Cn1cnc2c(N)nc3ccc(-n4cccc4)cc3c21` is higher in melting point: 211 to 212 °C for the first, 228 to 232 °C for the second.

Compared with `CC1(C)COC(=S)N(Cc2ccccc2NS(=O)(=O)C(F)(F)F)C1`, `CS(=O)(=O)N1CCC(Nc2nc(Nc3ccc(F)c(Cl)c3)nc(OCC(F)(F)F)n2)C1` (centres undefined) is higher in melting point: 130 °C for the first, 199 to 200 °C for the second.

First: Cc1ccc(-c2ccn(C(C)C(=O)N(C)C)n2)cc1 (centres undefined)
Second: Cc1ccc(-c2ccc(C#N)cc2)cc1
The melting point of the first is lower: 79 to 82 °C for the first, 107 to 109 °C for the second.

First: CSCCCn1cc(C(Cc2ccccc2Br)=NO)c2ccc(Cl)c(Cl)c21
Second: COc1ccc(NN=C(Sc2ccc(Cl)c(Cl)c2)C(C)=O)cc1
The melting point of the first is higher: 139 to 142 °C for the first, 109 to 113 °C for the second.

First: COCCOc1ccc(CCCOC(=O)NS(=O)(=O)NC2CCC(C)CC2)c(Oc2ncc(C(F)(F)F)cc2Cl)c1 (centres undefined)
Second: COc1ccc(S(=O)(=O)C(C)(CC2CCCCC2)C(=O)NO)cc1 (centres undefined)
The melting point of the first is higher: 122 °C for the first, 58 °C for the second.

First: N#Cc1ccc(NC2CCCCC2)c([N+](=O)[O-])c1
Second: COC(=O)c1cccc2c(C#N)c[nH]c12
The melting point of the first is lower: 109 °C for the first, 212 to 214 °C for the second.

First: CC#CCOc1ccc(S(=O)(=O)C(C(=O)NO)C2CCN(C(=O)OC(C)(C)C)CC2)cc1 (centres undefined)
Second: CC(C)(C)c1csc(NC(=O)Nc2ccc(N3CCN(C(=O)Nc4ccc(OCCO)cc4C(F)(F)F)CC3)cc2)n1
The melting point of the first is lower: 80 °C for the first, 130 to 132 °C for the second.

Compared with `CSC(=S)NN=Cc1nc(-c2ccccc2)[nH]c1C`, `N#Cc1c[nH]c(-c2ccccc2)c1C#N` is higher in melting point: 180 to 185 °C for the first, 197 to 200 °C for the second.

Compared with `O=S(=O)(N[C@H](CO)C(CC(F)(F)F)CC(F)(F)F)c1ccc(Cl)cc1`, `NS(=O)(=O)c1cccc(NC(=O)c2cnn3c(C(F)(F)F)cc(-c4ccc(C(F)(F)F)c(Cl)c4)nc23)c1` is higher in melting point: 186 to 187 °C for the first, 287 °C for the second.

First: COc1ccc(CSCC(C(=O)O)C(F)(F)F)cc1 (centres undefined)
Second: CC(=O)NCCc1ccc(C=CC(=O)O)cc1
The melting point of the first is lower: 72 to 74 °C for the first, 206 to 208 °C for the second.

First: CCCCCCCCCCCCC(C(=O)O)C(O)(CC(=O)O)C(=O)O (centres undefined)
Second: CCOc1cc(CC)ccc1C1CCN(CCCCNC(=O)c2ccc(NC(=O)c3ccc(Cl)cc3)cc2)CC1
The melting point of the first is lower: 75.4 to 76.1 °C for the first, 250 °C for the second.

First: c1ccc(CN2CCC(NC3CCOCC3)CC2)cc1
Second: COc1ccc(-c2cc3nc(N4CCOCC4)c4ccccc4c3nn2)cc1
The melting point of the first is lower: 60 °C for the first, 218 to 220 °C for the second.

First: CC(C)COC(=O)N1CCN(c2c(C(=O)N3CCN(C)CC3)c3ccccc3n2-c2ccccc2)CC1
Second: COc1cccc(-n2c(=O)n(OCc3ccccc3)c(=O)c3cc(F)c(F)cc32)c1
The melting point of the first is lower: 132 to 133 °C for the first, 157 to 158 °C for the second.

First: NC(=O)c1ccc(CCCNCC(O)c2ccccc2)cc1 (centres undefined)
Second: Cc1nnc2n1-c1sc(CCc3ccc(CC(C)C)cc3)cc1C(c1ccccc1Cl)=NC2c1ccccc1 (centres undefined)
The melting point of the first is lower: 106 to 108 °C for the first, 170 to 172 °C for the second.

First: CON=C(C(N)=O)c1cnccn1
Second: CN(C)C(=O)Oc1ccc2nc(S(N)(=O)=O)sc2c1
The melting point of the first is lower: 188 to 190 °C for the first, 208 to 209 °C for the second.

First: Cc1cc(CC(=O)O)cc2c1[nH]c1ccccc12
Second: O=c1c2cc(F)ccc2nc(CSc2ncnc3[nH]cnc23)n1-c1ccccc1Cl
The melting point of the first is lower: 177 to 179 °C for the first, 233 °C for the second.

First: CC(=O)CN1CCc2c(c(=O)oc3cc(C)ccc23)C1
Second: O=C(NCCO)c1cccc(-c2ccc3c(c2)N(c2ccc(Cl)cc2Cl)CCCC3)c1
The melting point of the first is lower: 128 to 129 °C for the first, 172 to 173 °C for the second.

First: CC(C)=CC(=O)OC(COc1ccc(C(=O)c2ccccc2)c(O)c1)COc1ccc(C(=O)c2ccccc2)c(O)c1
Second: CC(=O)Nc1ccc(N)c2c1C(=O)C(O)(c1ccc(C(C)C)cc1O)C2=O (centres undefined)
The melting point of the first is lower: 148 to 150 °C for the first, 278 to 280 °C for the second.

First: CC(/C=C/c1cscc1-c1ccc2c(c1)C(C)(C)CCC2(C)C)=C\C(=O)O
Second: CC1(C)CC(=C(c2ccc(O)cc2)c2ccc(F)cc2)CC(C)(C)C1
The melting point of the first is higher: 192 to 193 °C for the first, 134 to 135 °C for the second.

Compared with `CN(C)n1c(C(F)(F)F)n[nH]c1=O`, `CCS(=O)(=O)c1ccc2c(c1)nc(CC(C)(C)C)n2CCOC(F)(F)F` is lower in melting point: 138 °C for the first, 133 °C for the second.

First: CC(C)c1cc2ncsc2cc1SC1=C(O)CC(CCc2ccc(F)cc2)(C(C)C)OC1=O (centres undefined)
Second: CC(C)CC1OC[C@@H]2CCCN2C1=O (some centres undefined)
The melting point of the first is higher: 104 to 105 °C for the first, 61 to 65 °C for the second.

Compound `CNc1cc(Cl)cc(NC)c1[N+](=O)[O-]` has a melting point of 193 °C.
